Read-outs that look alike come from different tables or passages of the source.
What was measured:
Assay in all cases: biochemical
FimHtrJ96 = target: T1, FimHtrJ96 (Escherichia coli, UniProt P08191); type: binding, uropathogenic E. coli strain J96; conditions: for ΔG° J96: Table 3, calculated from KD
T1 construct: coding for the lectin domain of FimH (residues 1-158) with a C-terminal 6-histidine tag; made in house; host or cells: E. coli HB101 (lacking the fim operon), periplasmic extract, plasmid pPKL241
T1 sequence (P08191 22-179): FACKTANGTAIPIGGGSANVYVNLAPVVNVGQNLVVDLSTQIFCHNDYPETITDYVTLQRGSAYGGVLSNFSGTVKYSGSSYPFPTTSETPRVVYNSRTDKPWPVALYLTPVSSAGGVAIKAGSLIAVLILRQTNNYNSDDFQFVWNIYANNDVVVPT
Experimental: To measure the dissociation constant for FimH:alkyl or aryl-mannoside binding, two different binding assays were developed. The first binding assay uses [^3H]-mannose. The amount of radioactively labeled mannose bound to FimHtrJ96 was measured at six different concentrations of [^3H]-mannose, and a hyperbolic curve fitted to the resulting data (FIG. 1A). FimHtrJ96 corresponds to the carbohydrate (mannose) binding domain of FimH from the uropathogenic E. coli strain J96. The dissociation equilibrium constant was determined from this graph at the concentration of mannose […], which corresponds to occupation of half of the binding sites.
Surface Plasmon Resonance measurements were performed on a Biacore3000™. In a first experiment, the kinetic constants and maximal binding were determined for the FimH-antibody interaction. Next, a fixed concentration of FimH (close to the KD of the FimH-antibody interaction) in combination with varying concentrations of carbohydrate, were used to determine the dissociation equilibrium constant of the FimH-saccharide interaction in a competition experiment. Every measurement was repeated at least twice, including testing the variation between different protein and saccharide batches.
To eliminate the possibility of different binding strength for full length FimH and FimHtrJ96, the binding of alpha-D-mannose to FimC:FimH complex was also measured. […] The inhibition of [^3H]-mannose binding was used in a displacement assay to determine the dissociation constant for a synthetic butyl mannoside by measuring the amount of [^3H]-mannose bound to the protein in the presence of increasing amounts of the inhibitor (FIG. 1B). […] To investigate the effect of sequential addition of methyl groups to the O1 oxygen of D-mannose, a series of alkyl mannosides were synthesized and the dissociation constants determined using the [^3H]-mannose displacement assay and by surface plasmon resonance (Table 1).
Surface Plasmon Resonance measurements were performed on a Biacore3000™. The Fab fragments of a monoclonal antibody against FimH were covalently immobilised via lysines at 1000 Resonance Units (1000 pg ligand/mm^2) in flowcell Fc2 on a CM5 biasensor chip (BIAapplications Handbook, Biacore AB, Uppsala, Sweden). Immobilisation buffer was 100 mM NaAc pH 5.0 with 100 mM NaCl. The reference flowcell Fc1 was left blank.
Binding of FimH to the immobilized antibody was measured with a Biacore 3000 instrument in running buffer (phosphate buffered saline with 0.005% surfactant P20 and 3 mM EDTA), on both flowcells Fc1 and Fc2 simultaneously, at a flow rate of 30 μl/min and at 25° C. Complete dissociation of FimH was done with running buffer before starting a new binding cycle. For all measurements, the association time was 3 minutes, the dissociation time was 30 min. All binding cycles were performed in duplicate, including a zero concentration cycle of FimH (injection of running buffer).
In a first experiment, the kinetic constants, ka and kd, and the maximal binding Rmax, were determined for the FimH-antibody interaction (FimH concentrations (nM): 2000, 1000, 500, 250, 125, 62.5, 31.25, 15.625, 7.818, 3.911, 1.957, 0). All analyses were performed with the BIAeval software. A Langmuir binding isotherm with a 1:1 stoichiometry was fitted to the data, from which the kinetic constants and maximal binding were obtained.
In the next experiment, samples containing a fixed concentration of FimH (close to the KD of the FimH-antibody interaction) in combination with varying concentrations of saccharide, were used to determine the dissociation constant of the FimH-saccharide interaction in a competition experiment. First, ten-fold dilutions of the saccharide solution were used to determine the concentration range for binding of the saccharide to FimH.

FimHtrCl#4 = target: T2, FimHtrCl#4 (Escherichia coli, UniProt P08191, G94E/N91S/S99N/V48A); type: binding, E. coli UPEC (Cl#4) strain; conditions: for Kd: Table 3, [3H]-mannose displacement assay (mannose measured directly), read-out: KD CI#4; for ΔG° CI#4: Table 3, calculated from KD
T2 construct: coding for the lectin domain of FimH (residues 1-158) with a C-terminal 6-histidine tag; made in house; host or cells: E. coli HB101 (lacking the fim operon), periplasmic extract, plasmid pMAS146
T2 sequence (P08191 22-179 V48A/N91S/G94E/S99N): as the sequence (P08191 22-179) above, with V27A, N70S, G73E, S78N counted along it
Experimental: (§1) To investigate if these variations reflect differences in sugar binding at the molecular level, the dissociation constants of a series of mannosides for the FimH lectin domain from a fecal (F18) and from a UPEC (Cl#4) strain were determined. […] For comparison, binding to FimHtrJ96 was also investigated. Both F18 and Cl#4 FimH lectin domains were cloned, expressed, and purified in the same way as FimHtrJ96 (Schembri et al., 2000). These two lectin domains differ from the lectin domain of FimHJ96 by substitutions Val27Ala, Asn70Ser and Ser78Asn. In addition, FimHCl#4 differs from the other two variants by a Gly73Glu substitution. […] Five different tri-mannosides corresponding to high-mannose substructures were synthesized, and their binding to FimHtrJ96, FimHtrF18 and FimHtrCl#4 measured using our [^3H]-mannose displacement assay (Table 3). Alpha-D-mannose binding was first directly measured for each of the FimH variants.
(§2) [^3H]alpha-D-mannose was obtained from Amersham. […] Syntheses of tri-mannosides was as reported earlier by Oscarson and co-workers (1993). Weighed amounts of tri-mannosides were dissolved in double distilled water to give stock solutions of 0.87 M man-(1,2)-man-(1,2)-man, 0.25 M man-(1,2)-man-(1,3)-man, 0.27 M man-(1,2)-man-(1,6)-man, 0.30 M man-(1,3)-man-(1,6)-man, 0.13 M man-(1,6)-man-(1,6)-man. Similarly, alkyl mannosides were dissolved in double distilled water to give stock solutions of 100 mM methyl mannoside, 59.8 mM ethyl mannoside, 45.9 mM propyl mannoside, 51.9 mM butyl mannoside, 17.3 mM pentyl mannoside, 20.8 mM hexyl mannoside, 15.3 mM heptyl mannoside, 15.2 mM octyl mannoside. pNPalphaMan and MeUmbalphaMan (6 mg each) were dissolved in 20 μl DMSO and diluted to 20 mM using double distilled water. Binding experiments were performed using six different concentrations of [^3H]-alpha-D-mannose (final concentrations 43.5 μM, 29.0 μM, 19.3 μM, 12.9 μM, 8.6 μM, 5.7 μM). FimHtrJ96 obtained by growing bacteria in minimal medium was used in all binding experiments. 180 μl protein at a concentration of about 500 nM was mixed with 20 μl of the radioactive ligand, and incubated at 37° C. for 20 min. To separate free ligand from bound, the mixture was rapidly filtrated through a Protran BA 85 Cellulose-nitrate filter (Schleicher & Schuell, Dassel, Germany), and washed once with 1 ml of ice-cold 1× PBS (phosphate buffered saline). Filter-bound radioactivity was measured by scintillation spectrometry within 24 hours. The displacement experiments were performed using six different concentrations (final concentrations in the range 0.0˜43.5 μM) of the inhibitor, in the presence of 43.5 μM [^3H]-alpha-D-mannose. 20 μl radioactive ligand, 20 μl inhibitor at decreasing concentrations, and 160 μl protein (500 nM) were mixed, and the experiments performed as above. All experiments were performed in duplicates. For determination of KD for α-D-mannose, a hyperbolic curve (y=P1x/(P2+x), where P2=KD) was fitted to the data. For the displacement experiments, the curve y=P1/(P2+x), where P2 is the concentration of the inhibitor displacing 50% of the labelled ligand, [I]0.5 was used instead. To calculate the inhibitor dissociation constant (KI) the Cheng & Prusoff equation (KI=[I]0.5/([L]/KL+1); KL is the constant of dissociation for the ligand) (Cheng and Prusoff, 1973), was used when both the concentration of the radioactive ligand (L) and the displacing agent (I) are in excess over the protein (LT>>PT;IT>>PT, T indicates total concentration). […] A plot of IT/((1−Y)*(LT/KL)−Y) against 1/Y gives a straight line with a slope of KI.

FimHtrF18 = target: T3, FimHtrF18 (Escherichia coli, UniProt P08191, N91S/S99N/V48A); type: binding, E. coli fecal (F18) strain; conditions: for Kd: Table 3, [3H]-mannose displacement assay (mannose measured directly), read-out: KD F18; for ΔG° F18: Table 3, calculated from KD
T3 construct: coding for the lectin domain of FimH (residues 1-158) with a C-terminal 6-histidine tag; made in house; host or cells: E. coli HB101 (lacking the fim operon), periplasmic extract, plasmid pPKL316
T3 sequence (P08191 22-179 V48A/N91S/S99N): as the sequence (P08191 22-179) above, with V27A, N70S, S78N counted along it
Experimental: as §1, §2

[1] = displacement assay, FimHtrJ96, read-out: KD
[2] = quoted in b67 for comparison with docking, method not given, read-out: experimentally determined dissociation constant Kd
[3] = Table 3, [3H]-mannose displacement assay (mannose measured directly), read-out: KD J96

OC[C@H]1O[C@H](O)C[C@@H](O)[C@@H]1O [2-deoxy α-D-mannose]
Kd (FimHtrJ96): 300 µM | ΔG° (FimHtrJ96; Table 2, calculated from KD): -4.8 kcal/mol

CCCCO[C@H]1O[C@H](CO)[C@@H](O)[C@H](O)[C@@H]1O [Butyl man, butyl mannoside]
Kd (FimHtrJ96; Table 1, O1 alkyl and aryl mannosides, SPR and displacement binding experiments, read-out: KD): 0.151 µM | ΔG° (FimHtrJ96; Table 1, calculated from KD): -9.3 kcal/mol | Kd (FimHtrJ96; [3H]-mannose binding or displacement assay, FimHtrJ96, read-out: KD): 0.15 µM | binding strength relative to D-mannose (times stronger) (FimHtrJ96; butyl mannoside vs D-mannose, displacement assay): around 15 times

CCO[C@H]1O[C@H](CO)[C@@H](O)[C@H](O)[C@@H]1O [Ethyl man, ethyl mannoside]
Kd (FimHtrJ96): 1.2 µM | ΔG° (FimHtrJ96; Table 1, calculated from KD): -8.1 kcal/mol

CCCCCCCO[C@H]1O[C@H](CO)[C@@H](O)[C@H](O)[C@@H]1O [Heptyl man, heptyl α-D-mannopyranoside]
Kd (FimHtrJ96): 0.005 µM | ranking of binders (FimHtrJ96; SPR and displacement binding experiments, Table 1 series): best binder | ΔG° (FimHtrJ96; Table 1, calculated from KD): -11.3 kcal/mol

CCCCCCO[C@H]1O[C@H](CO)[C@@H](O)[C@H](O)[C@@H]1O [Hexyl man, hexyl mannoside]
Kd (FimHtrJ96): 0.01 µM | ΔG° (FimHtrJ96; Table 1, calculated from KD): -10.9 kcal/mol

CO[C@H]1O[C@H](CO)[C@@H](O)[C@H](O)[C@@H]1O [Methyl man, Methyl mannoside]
Kd (FimHtrJ96): 2.2 µM | ΔG° (FimHtrJ96; Table 1, calculated from KD): -7.7 kcal/mol

CCCCCCCCO[C@H]1O[C@H](CO)[C@@H](O)[C@H](O)[C@@H]1O [Octyl man, octyl mannoside]
Kd (FimHtrJ96): 0.022 µM | ΔG° (FimHtrJ96; Table 1, calculated from KD): -10.4 kcal/mol

CCCCCO[C@H]1O[C@H](CO)[C@@H](O)[C@H](O)[C@@H]1O [Pentyl man, pentyl mannoside]
Kd (FimHtrJ96): 0.025 µM | ΔG° (FimHtrJ96; Table 1, calculated from KD): -10.4 kcal/mol

CCCO[C@H]1O[C@H](CO)[C@@H](O)[C@H](O)[C@@H]1O [Propyl man, propyl mannoside]
Kd (FimHtrJ96): 0.3 µM | ΔG° (FimHtrJ96; Table 1, calculated from KD): -8.9 kcal/mol

Cc1cc(=O)oc2cc(O[C@H]3O[C@H](CO)[C@@H](O)[C@H](O)[C@@H]3O)ccc12 [Umbelliferyl man, 4-Methylumbelliferyl α-mannoside]
ΔG° (FimHtrJ96; Table 1, calculated from KD): -10.8 kcal/mol | Kd (FimHtrJ96; [1]): 0.012 µM | Kd (FimHtrJ96; [2]): 0.02 µM

O=C(CO)[C@@H](O)[C@H](O)[C@H](O)CO [fructose]
Kd (FimHtrJ96): 31 µM | ΔG° (FimHtrJ96; Table 2, calculated from KD): -6.1 kcal/mol | affinity relative to mannose (times lower) (FimHtrJ96; fructose vs mannose, FimH): 15 times

O=C[C@H](O)[C@@H](O)[C@@H](O)[C@H](O)CO [galactose]
Kd (FimHtrJ96): 100000 µM | ΔG° (FimHtrJ96; Table 2, calculated from KD): -1.4 kcal/mol

OC[C@H]1O[C@H](O[C@@H]2[C@@H](O[C@@H]3C(O)O[C@H](CO)[C@@H](O)[C@@H]3O)O[C@H](CO)[C@@H](O)[C@@H]2O)[C@@H](O)[C@@H](O)[C@@H]1O (stereo partly shown) [man-(1,2)-man-(1,2)-man]
Kd (FimHtrCl#4): 3.95 µM | ΔG° CI#4 (FimHtrCl#4): -7.7 kcal/mol | Kd (FimHtrJ96; [3]): 1.6 µM | ΔG° J96 (FimHtrJ96): -8.2 kcal/mol | Kd (FimHtrF18): 3.25 µM | ΔG° F18 (FimHtrF18): -7.8 kcal/mol

OC[C@H]1O[C@H](O[C@@H]2[C@@H](O[C@H]3[C@H](O)[C@@H](CO)OC(O)[C@H]3O)O[C@H](CO)[C@@H](O)[C@@H]2O)[C@@H](O)[C@@H](O)[C@@H]1O (stereo partly shown) [man-(1,2)-man-(1,3)-man]
Kd (FimHtrCl#4): 3.65 µM | ΔG° CI#4 (FimHtrCl#4): -7.7 kcal/mol | Kd (FimHtrJ96; [3]): 1.8 µM | ΔG° J96 (FimHtrJ96): -8.1 kcal/mol | Kd (FimHtrF18): 3.05 µM | ΔG° F18 (FimHtrF18): -7.8 kcal/mol

OC[C@H]1O[C@H](O[C@@H]2[C@@H](OC[C@H]3OC(O)[C@@H](O)[C@@H](O)[C@@H]3O)O[C@H](CO)[C@@H](O)[C@@H]2O)[C@@H](O)[C@@H](O)[C@@H]1O (stereo partly shown) [man-(1,2)-man-(1,6)-man]
Kd (FimHtrCl#4): 2.2 µM | ΔG° CI#4 (FimHtrCl#4): -8.0 kcal/mol | Kd (FimHtrJ96; [3]): 0.83 µM | ΔG° J96 (FimHtrJ96): -8.6 kcal/mol | Kd (FimHtrF18): 1.8 µM | ΔG° F18 (FimHtrF18): -8.1 kcal/mol

O=[N+]([O-])c1ccc(OC2O[C@H](CO)[C@@H](O)[C@H](O)[C@@H]2O)cc1 (stereo partly drawn) [p-Nitrophenyl man, p-Nitrophenyl α-mannoside]
ΔG° (FimHtrJ96; Table 1, calculated from KD): -10.3 kcal/mol | Kd (FimHtrJ96; [1]): 0.026 µM | Kd (FimHtrJ96; [2]): 0.044 µM

OC[C@H]1O[C@@](CO)(O[C@H]2O[C@H](CO)[C@@H](O)[C@H](O)[C@H]2O)[C@@H](O)[C@@H]1O [sucrose]
Kd (FimHtrJ96): 12800 µM | ΔG° (FimHtrJ96; Table 2, calculated from KD): -2.6 kcal/mol

From patent US20080171706A1, “Anti-Adhesive Compounds to Prevent and Treat Bacterial Infections” (priority 2004, published 2008)
